This note sets out measurements from ChEMBL document CHEMBL5584334, “Discovery of a Covalent Inhibitor of Pro-Caspase-1 Zymogen Blocking NLRP3 Inflammasome Activation and Pyroptosis” (J Med Chem, 2024).

SMILES strings stand for the structures. pIC50: −log10 of the molar value. Active and inactive are the calls of the source. No cut-off for these calls is given here.

Data set [1] has as its target NACHT, LRR and PYD domains-containing protein 3 (Mus musculus) (UniProt Q8R4B8). Put plainly: Inhibition of NLRP3 inflammasome activation in mouse J774.A1 cells assessed as reduction in NLRP3 protein expression at 0.5 to 2 uM preincubated for 30 mins followed by LPS stimulation for 6 hrs by Western blotting analysis. The note with it: dose 0.5-2 µM, time 6.5 hrs. Type of data set: cell-based.

The subject of data set [2] is J774.A1. Put plainly: Inhibition of pyroptosis in mouse J774.A1 cells assessed as reduction in caspase-1 to GSDMD interaction at 1 uM pretreated with LPS for 3 hrs followed by compound addition in presence of nigericin by immunoprecipitation analysis. Type of data set: functional, cell-based.
In data set [3] the test system is Mus musculus. Kind of data set: Anti-inflammatory activity in MSU/C18:0 free fatty acid induced Kunming mouse model of gouty arthritis assessed as effect on pro-IL-1beta expression at 5 to 20 mg/kg, ip preadministered with compound for 30 mins followed by MSU/C18:0 free fatty acid injection and measured after 24 hrs by Western blotting analysis. Type of data set: functional, organism-based. The note with it: dose 5-20 mg/kg, time 24.5 hrs. For orientation: In western blotting, separated proteins are transferred to a membrane and probed.

Data set [4] relates to THP-1. Put plainly: Effect on pro-1L-1beta protein expression in LPS/nigericin stimulated human THP-1 cells supernatant at 0.5 to 2 uM by Western blotting analysis. The class given is functional, cell-based. As to conditions: dose 0.5-2 µM.
Data set [5] in a line: Tmax in rat at 25 mg/kg, po. The note with it: in vivo. Type of data set: ADME, organism-based.
Data set [6] concerns THP-1. Kind of data set: Effect on pro caspase-5 expression in human THP-1 cells at 2 uM pretreated with pam3CSK4 for 3 hrs followed by compound addition for 30 mins prior to cytosolic LPS stimulation for 16 hrs by ELISA. As to conditions: time 16.5 hrs. The class given is functional, cell-based. Background: In an ELISA, binding on a coated surface is turned into a signal by an enzyme label.

The target in data set [7] is NACHT, LRR and PYD domains-containing protein 3 (Mus musculus) (UniProt Q8R4B8). Kind of data set: Inhibition of NLRP3 inflammasome activation in mouse J774.A1 cells assessed as reduction in TNF-alpha release at 0.5 to 2 uM preincubated for 30 mins followed by LPS stimulation for 6 hrs. The note with it: dose 0.5-2 µM, time 6.5 hrs. Type of data set: cell-based.
Data set [8] has as its system THP-1. Put plainly: Effect on cleaved caspase-4 expression in human THP-1 cells at 2 uM pretreated with pam3CSK4 for 3 hrs followed by compound addition for 30 mins prior to cytosolic LPS stimulation for 16 hrs by ELISA. As to conditions: time 16.5 hrs. Type of data set: functional, cell-based.
Data set [9] concerns the target T1, Caspase-1 (Homo sapiens, UniProt P29466).
T1 sequence (P29466 whole entry): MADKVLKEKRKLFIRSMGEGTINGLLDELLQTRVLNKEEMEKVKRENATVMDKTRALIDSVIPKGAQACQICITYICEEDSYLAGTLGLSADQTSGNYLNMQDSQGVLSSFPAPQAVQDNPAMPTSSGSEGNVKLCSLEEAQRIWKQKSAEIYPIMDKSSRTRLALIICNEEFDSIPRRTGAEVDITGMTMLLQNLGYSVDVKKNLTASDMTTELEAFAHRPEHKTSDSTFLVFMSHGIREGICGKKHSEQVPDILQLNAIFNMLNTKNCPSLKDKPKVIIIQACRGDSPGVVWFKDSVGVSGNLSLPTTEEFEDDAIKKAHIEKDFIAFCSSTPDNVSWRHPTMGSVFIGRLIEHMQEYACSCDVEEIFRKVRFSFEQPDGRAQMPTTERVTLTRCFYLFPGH
Put plainly: Inhibition of recombinant human caspase-1 expressed in Escherichia coli BL21 cells using […] as substrate incubated for 30 mins.

For data set [10], the target named is NACHT, LRR and PYD domains-containing protein 3 (Mus musculus) (UniProt Q8R4B8). Put plainly: Inhibition of NLRP3 inflammasome activation in mouse J774.A1 cells assessed as reduction in NLRP3 mRNA expression at 0.5 to 2 uM preincubated for 30 mins followed by LPS stimulation for 24 hrs by RT-qPCR analysis. The note with it: dose 0.5-2 µM, time 24.5 hrs. Type of data set: cell-based. (Real-time PCR tracks product formation cycle by cycle.)

The test system of data set [11] is J774.A1. Put plainly: Inhibition of ASC colocalization in LPS/nigericin stimulated mouse J774.A1 cells. Type of data set: functional, cell-based.
Data set [12] has as its system Mus musculus. Kind of data set: Anti-inflammatory activity in MSU/C18:0 free fatty acid induced Kunming mouse model of gouty arthritis assessed as reduction IL-1beta expression at 5 to 20 mg/kg, ip preadministered with compound for 30 mins followed by MSU/C18:0 free fatty acid injection and measured after 24 hrs by Western blotting analysis. The class given is functional, organism-based. The note with it: dose 5-20 mg/kg, time 24.5 hrs.

Data set [13] relates to THP-1. Put plainly: Inhibition of p20 fragment of IL-1beta protein expression in LPS/MSU stimulated human THP-1 cells supernatant by Western blotting analysis. Type of data set: functional, cell-based.
For data set [14], the system named is Caspase-1 (Homo sapiens), P29466 [C285A]. Put plainly: Binding affinity to recombinant caspase-1 C285A mutant (unknown origin) at 2 uM by SDS-PAGE analysis.
Data set [15] has as its target NACHT, LRR and PYD domains-containing protein 3 (Mus musculus) (UniProt Q8R4B8). Kind of data set: Inhibition of NLRP3 inflammasome activation in LPS/ATP stimulated mouse J774.A1 cells assessed as reduction in IL-18 production incubated for 30 mins by ELISA. Type of data set: cell-based.
The target is the same in data set [16]. Kind of data set: Inhibition of NLRP3 inflammasome activation in LPS/nigericin stimulated mouse J774.A1 cells assessed as reduction in IL-18 production pretreated with LPS for 3 hrs prior to compound addition for 30 mins followed by nigericin addition and measured after 45 mins by ELISA. The note with it: time 75.0 min. Type of data set: cell-based.
Data set [17] relates to THP-1. Kind of data set: Effect on pro-caspase 1 protein expression in LPS/MSU stimulated human THP-1 cells supernatant by Western blotting analysis. The class given is functional, cell-based.
For data set [18], the target named is T2, Caspase-7 (Mus musculus) (UniProt P97864).
T2 sequence (whole entry): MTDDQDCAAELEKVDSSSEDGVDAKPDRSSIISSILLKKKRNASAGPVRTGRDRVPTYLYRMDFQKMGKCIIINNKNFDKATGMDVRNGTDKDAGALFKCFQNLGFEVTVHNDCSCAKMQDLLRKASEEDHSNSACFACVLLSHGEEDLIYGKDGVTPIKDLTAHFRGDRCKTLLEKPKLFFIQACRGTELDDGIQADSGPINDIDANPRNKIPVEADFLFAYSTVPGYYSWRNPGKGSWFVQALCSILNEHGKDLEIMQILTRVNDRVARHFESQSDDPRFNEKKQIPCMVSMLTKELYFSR
Kind of data set: Inhibition of cisplatin induced caspase-7 activation in mouse J774.A1 cells at 2 uM preincubated for 30 mins followed by cisplatin addition and incubated overnight. Type of data set: cell-based.

The target of data set [19] is NACHT, LRR and PYD domains-containing protein 3 (Mus musculus) (UniProt Q8R4B8). Kind of data set: Inhibition of NLRP3 inflammasome activation in LPS primed Casp1 knockout mouse BMDM cells transfected with caspase-1 C397A mutant assessed as reduction in IL-1beta release at 2 uM preincubated for 30 mins followed by nigericin stimulation. Type of data set: cell-based.

Data set [20] deals with T3, Caspase-1 (Homo sapiens) (UniProt P29466).
T3 sequence (whole entry): T1 sequence (P29466 whole entry)
Put plainly: Inhibition of recombinant human caspase-1 expressed in Escherichia coli BL21 cells assessed as remaining activity at 100 uM using […] as substrate incubated for 30 mins relative to control.

Data set [21] deals with Mus musculus. Put plainly: Anti-inflammatory activity in MSU/C18:0 free fatty acid induced Kunming mouse model of gouty arthritis assessed as reduction IL-1beta release at 5 to 20 mg/kg, ip preadministered with compound for 30 mins followed by MSU/C18:0 free fatty acid injection and measured after 24 hrs by ELISA. Type of data set: functional, organism-based. As to conditions: dose 5-20 mg/kg, time 24.5 hrs.

Data set [22] is described as follows: Acute toxicity in Kunming mouse assessed as change in ALT level at 100 mg/kg, ip administered for 14 days. The class given is organism-based. The note with it: in vivo, 336 h, time 14 day.
In data set [23] the test system is Caspase-1 (Homo sapiens), P29466 [C285A]. Put plainly: Binding affinity to Flag-tagged caspase-1 C285A mutant (unknown origin) expressed in HEK293T cells by pull-down assay. Type of data set: cell-based. The note with it: dose 2.0 µM.
In data set [24] the test system is HEK293T. Put plainly: Inhibition of recombinant caspae-1 C397A mutant (unknown origin) to GSDMD (unknown origin) interaction expressed in HEK293T cells. As to conditions: Homo sapiens. Type of data set: cell-based.

Sequence of NACHT, LRR and PYD domains-containing protein 3 (Mus musculus) (Q8R4B8 whole entry, the tested form may be a part): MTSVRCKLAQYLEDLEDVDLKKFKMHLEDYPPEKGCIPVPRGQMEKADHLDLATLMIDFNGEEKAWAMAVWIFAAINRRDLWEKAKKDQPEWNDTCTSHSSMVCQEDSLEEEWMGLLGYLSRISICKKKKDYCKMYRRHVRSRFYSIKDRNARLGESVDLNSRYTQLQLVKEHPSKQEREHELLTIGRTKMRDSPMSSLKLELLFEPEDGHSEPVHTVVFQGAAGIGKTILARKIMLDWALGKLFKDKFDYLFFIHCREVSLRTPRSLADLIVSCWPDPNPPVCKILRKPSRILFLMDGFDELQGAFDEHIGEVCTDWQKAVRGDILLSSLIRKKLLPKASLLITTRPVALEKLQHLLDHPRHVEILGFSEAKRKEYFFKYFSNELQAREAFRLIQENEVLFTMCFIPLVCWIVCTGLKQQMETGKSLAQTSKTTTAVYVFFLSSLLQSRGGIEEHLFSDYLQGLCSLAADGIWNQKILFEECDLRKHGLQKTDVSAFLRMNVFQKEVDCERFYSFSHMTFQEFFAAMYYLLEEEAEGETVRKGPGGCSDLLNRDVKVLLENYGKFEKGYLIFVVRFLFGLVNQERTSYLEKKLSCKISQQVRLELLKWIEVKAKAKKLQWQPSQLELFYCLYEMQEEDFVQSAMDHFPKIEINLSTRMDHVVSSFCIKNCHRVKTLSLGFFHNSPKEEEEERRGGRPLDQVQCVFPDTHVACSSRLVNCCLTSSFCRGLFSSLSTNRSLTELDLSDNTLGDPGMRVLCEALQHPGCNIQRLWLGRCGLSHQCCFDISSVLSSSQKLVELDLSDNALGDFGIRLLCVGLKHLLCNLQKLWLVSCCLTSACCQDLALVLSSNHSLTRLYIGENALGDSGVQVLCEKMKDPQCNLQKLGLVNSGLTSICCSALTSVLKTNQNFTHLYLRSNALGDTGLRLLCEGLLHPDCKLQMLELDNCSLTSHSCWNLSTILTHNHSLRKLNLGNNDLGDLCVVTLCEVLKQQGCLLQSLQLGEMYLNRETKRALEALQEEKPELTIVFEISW
Sequence of Caspase-1 (Homo sapiens), P29466 [C285A] (P29466 whole entry C285A, the tested form may be a part): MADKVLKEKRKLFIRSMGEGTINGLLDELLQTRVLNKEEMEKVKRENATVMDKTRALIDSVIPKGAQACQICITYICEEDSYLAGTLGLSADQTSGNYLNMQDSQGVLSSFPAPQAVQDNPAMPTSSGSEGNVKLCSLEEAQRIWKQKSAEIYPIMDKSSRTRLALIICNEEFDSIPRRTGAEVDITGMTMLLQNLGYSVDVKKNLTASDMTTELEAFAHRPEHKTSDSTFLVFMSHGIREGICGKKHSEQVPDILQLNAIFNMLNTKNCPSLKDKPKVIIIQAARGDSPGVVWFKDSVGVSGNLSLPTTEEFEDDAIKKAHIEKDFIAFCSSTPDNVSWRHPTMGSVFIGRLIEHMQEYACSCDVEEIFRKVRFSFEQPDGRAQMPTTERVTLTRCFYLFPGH

The term Tmax denotes the time at which the peak concentration occurs. In general, pIC50 refers to the IC50 on a negative log10 scale, so that one unit is a factor of ten. For `COc1ccc2c(c1)[C@]1(C=C[C@H](N=C=S)C[C@H]1C(=O)OC(C)(C)C)C(=O)N2C(=O)OCc1ccccc1`, the inhibition entry in [1], in [2], in data set [7], in data set [10], in data set [11] and in data set [13] was “Active” in each case. Moreover, the inhibition entry in [15] is “Active”. Also, the outcome in data set [3], in data set [4], in data set [6], in [8], in data set [14] and in [17] was inactive. Besides, in [23], the result was inactive. The Tmax in [5] is 1.5 h. The pIC50 in [9] was 6.19. In addition, the outcome in data set [12] and in data set [21] was Active. For the same compound, in [16], the inhibition result is “Dose-Dependent Effect”. The inhibition entry in data set [18], in data set [19] and in data set [24] was “inactive” in each case. Further, the Activity was 16% in data set [20] and “Non-Toxic” in data set [22].
